Consider 16 molecules from US9193717B2, “Mineralocorticoid receptor antagonists” (Merck Sharp & Dohme Corp., priority 2011, dated 2015).

Like-named read-outs stand apart in the source and are kept apart here. Where only a bound is given, the exact number is not on record here.

In the assay the target is T1, full-length human Mineralocorticoid Receptor (MR) (Homo sapiens, UniProt P08235).
T1 construct: full-length human Mineralocorticoid Receptor (MR); host or cells: PathHunter CHO-K1 cells
T1 sequence (P08235 1-984): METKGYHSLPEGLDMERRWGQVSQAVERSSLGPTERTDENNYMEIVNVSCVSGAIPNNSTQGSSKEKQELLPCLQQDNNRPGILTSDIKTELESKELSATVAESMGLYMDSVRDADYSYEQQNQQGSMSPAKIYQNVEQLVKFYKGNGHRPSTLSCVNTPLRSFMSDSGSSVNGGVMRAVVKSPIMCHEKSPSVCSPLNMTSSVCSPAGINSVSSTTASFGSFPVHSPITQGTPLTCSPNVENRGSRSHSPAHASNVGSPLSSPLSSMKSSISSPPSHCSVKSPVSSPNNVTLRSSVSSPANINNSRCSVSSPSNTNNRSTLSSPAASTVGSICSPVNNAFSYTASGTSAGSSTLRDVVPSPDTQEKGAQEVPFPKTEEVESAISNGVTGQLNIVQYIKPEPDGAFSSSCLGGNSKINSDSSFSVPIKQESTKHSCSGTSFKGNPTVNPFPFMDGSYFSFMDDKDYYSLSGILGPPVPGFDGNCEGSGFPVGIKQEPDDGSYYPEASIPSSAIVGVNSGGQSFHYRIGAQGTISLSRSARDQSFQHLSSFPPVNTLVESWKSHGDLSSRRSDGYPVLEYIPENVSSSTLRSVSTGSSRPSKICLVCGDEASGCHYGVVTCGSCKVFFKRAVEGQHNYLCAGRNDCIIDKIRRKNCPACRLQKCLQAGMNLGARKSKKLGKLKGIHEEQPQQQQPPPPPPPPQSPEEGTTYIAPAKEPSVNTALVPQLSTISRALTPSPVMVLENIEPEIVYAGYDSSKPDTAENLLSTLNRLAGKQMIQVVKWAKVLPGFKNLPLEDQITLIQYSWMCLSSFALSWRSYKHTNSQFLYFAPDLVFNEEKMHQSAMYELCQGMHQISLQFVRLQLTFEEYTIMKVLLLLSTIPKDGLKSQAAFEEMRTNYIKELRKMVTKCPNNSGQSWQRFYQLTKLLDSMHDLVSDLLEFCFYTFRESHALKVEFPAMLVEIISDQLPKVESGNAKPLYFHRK
Kind of assay: human MR NH Pro assay (PathHunter Protein:Protein interaction assay, MR antagonism). The note with it: PathHunter CHO-K1 cells that overexpress human MR, aldosterone (0.3 nM), 6 hours at 37° C., antagonist mode. It counts as cell-based. The protocol: The activity of the compounds of the present invention regarding mineralocorticoid receptor antagonism was evaluated using the following assay.
Assessment of Mr Potency in HMR NH Pro Assay
The human MR NH Pro assay is a commercially available PathHunter™ Protein:Protein interaction assay (DiscoveRx; http://www.discoverx.com/nhrs/prod-nhrs.php) that measures the ability of compounds to antagonize full-length human Mineralocorticoid Receptor (MR) binding to a coactivator peptide. PathHunter™ CHO—K1 cells that overexpress human MR (Cat #93-0456C2, Lot No: 09B0913) were cultured in growth media (F12K w/Glutamine and phenol red (Gibco 11765-047) supplemented with 10% HI FBS (Gibco 16000); 0.25 mg/ml Hygromycin in PBS (Invitrogen 10687-010, 50 mg/ml); 100 I.U./mL and 100 μg/mL Pen/Strep (Gibco 15140-122); 0.6 mg/mL Geneticin).
Compounds were assessed for MR antagonist activity by incubating the cells with a titrating dose of compound in F12K w/Glutamine and phenol red culture media (Invitrogen 11765-047) supplemented with 1% Charcoal/Dextran Treated FBS (Hyclone #SH30068.01) and aldosterone (0.3 nM) for 6 hours at 37° C. […] Growth Media: • F12K w/Glutamine and phenol red (Gibco 11765-047) • 10% HI FBS (Gibco 16000) • 0.25 mg/ml Hygromycin in PBS (Invitrogen 10687-010, 50 mg/ml) • 100 I.U./mL and 100 μg/mL Pen/Strep (Gibco 15140-122) • 0.6 mg/mL Geneticin (Gibco 10131, 50 mg/ml) • 2. Assay Media: • F12K w/Glutamine and phenol red (Invitrogen 11765-047) • 1% Charcoal/Dextran Treated FBS (Hyclone #SH30068.01) • 3. 3× PathHunter Detection Reagents (Cat#93-0001) (need ˜6 ml/plate). […] Control Agonist:Aldosterone:Sigma cat# A9477 • Prepare stock solution-10 μM in DMSO kept at −20° C. • for assay, dilute in assay media to 1.8 or 6 nM (6× of final concentration=about 0.3 nM to about 1.0 nM) • 5. Cell line: PathHunter CHO—K1 MR cells Cat #93-0456C2, Lot No: 09B0913, from operation liquid nitrogen stock. • 6. Control Antagonist:Spironolactone:Sigma #S-3378 and Eplerenone Sigma #107724-20-9 (10 mM stock concentration also prepared in DMSO and stored at −20° C.). • Methods: • Assay Set up and Calculations: • 1. Cells were grown in F12+FBS+Hygromycin+pen/strep+Genetin • 2. Cells were collected with 0.05% trypsin and the cell suspension was spun and resuspended in a volume of F12+1.5% CD-FBS and counted. • 3. The cells were resuspended to 4×10^5 cells/mL. • 4. Cells were (25 μL/well) added to the wells of a 384 well plate. • 5. The plate was then incubated at 37° C. over night in a humidified incubator with 5% CO2. • 6. Test compounds were titrated starting at 4.4 mM, 10-point titration in 1:3 dilution. • 7. Aldosterone was diluted in assay media to 1.8 nM or 6 nM from 10 μM stock (final concentration to be about 0.3 nM to about 1.0 nM). • Protocol for 384 Well Plate Format: 6 Hr Treatment: • 1. Plated 10K exponentially growing cells/well (25 μL) resuspended in assay media to each well using the Multidrop (Thermo Electron) (use white wall, clear bottom assay plates (Costar #3570) and incubate overnight at 37° C., 5% CO2. • 2. 0.25 μL 120× test compound (final DMSO concentration should be <1%) was added to each well n=2, 10 point titrations starting at 36.7 μM final concentration. • 3. 5 μL 6× agonist (final aldosterone concentration should be about 0.3 nM to about 1.0 nM) was added to all wells using the PlateMate Plus.
(ThermoFisher) (except those wells in columns 23 and 24) • 4. 5 μL of assay media was added to all wells in column 23 and 24. • 5. Plates were incubated 6 hrs at 37° C., 5% CO2. • 6. 15 μL 3× DiscoveRx detection reagent was added to each well. • 7. Plates were incubated for 1 hour at room temperature (plates stored in the dark). • 8. Plates were read on Envision (PerkinElmer) luminesence plate reader and analyzed using ADA.

Turning to `C[C@H](c1ccc(F)cc1)N1C(=O)O[C@](Cc2ccccc2)(c2nc3c(-c4ccnn4C)cccc3[nH]2)C1=O` [Compound 32, (5R)-5-Benzyl-3-[(1R)-1-(4-fluorophenyl)ethyl]-5-[4-(1-methyl-1H-pyrazol-5-yl)-1H-benzimidazol-2-yl]-1,3-oxazolidine-2,4-dione], the IC50 (as a rule, the concentration at which inhibition is half-maximal) (read-out: IC50 rating) lay within 100 to 500 nM.

On to `C[C@H](c1ccc(F)cc1)N1C(=O)O[C@](Cc2ccccc2)(c2nc3c(-c4cnn(C)c4)cccc3[nH]2)C1=O` [Compound 31, (5R)-5-Benzyl-3-[(1R)-1-(4-fluorophenyl)ethyl]-5-[4-(1-methyl-1H-pyrazol-4-yl)-1H-benzimidazol-2-yl]-1,3-oxazolidine-2,4-dione], for which the IC50 (read-out: IC50 rating) was 100 to 500 nM. On the same count and under the same terms, the same measure for `C[C@H](c1ccc(F)c(F)c1)N1C(=O)O[C@](Cc2ccccc2)(c2nc3ccc(Cl)cc3[nH]2)C1=O` [Compound 15, (5R)-5-Benzyl-5-(6-chloro-1H-benzimidazol-2-yl)-3-[(1R)-1-(3,4-difluorophenyl)ethyl]-1,3-oxazolidine-2,4-dione]: 100 to 500 nM; for `C[C@H](c1ccc(F)cc1)N1C(=O)O[C@](Cc2ccccc2)(c2nc3c(-c4cccnc4)cccc3[nH]2)C1=O` [Compound 36, (5R)-5-Benzyl-3-[(1R)-1-(4-fluorophenyl)ethyl]-5-(4-pyridin-3-yl-1H-benzimidazol-2-yl)-1,3-oxazolidine-2,4-dione]: 100 to 500 nM.

On to `CCCCCC[C@@H](C)N1C(=O)O[C@](Cc2ccc(F)cc2)(c2nc3cc(NS(C)(=O)=O)ccc3[nH]2)C1=O` [Example 41, N-(2-((R)-5-(4-fluorobenzyl)-3-((R)-octan-2-yl)-2,4-dioxooxazolidin-5-yl)-1H-benzo[d]imidazol-5-yl)methanesulfonamide], for which the half-maximal inhibitory concentration (IC50) (Table 3, read-out: IC50) fell in the range of 500 to 2000 nM. `C[C@H](c1ccc(F)cc1)N1C(=O)O[C@](Cc2ccccc2)(c2nc3cc(-c4cncc(F)c4)ccc3[nH]2)C1=O` [Compound 28, (5R)-5-Benzyl-3-[(1R)-1-(4-fluorophenyl)ethyl]-5-[5-(5-fluoro-pyridin-3-yl)-1H-benzimidazol-2-yl]-1,3-oxazolidine-2,4-dione]: the IC50 (read-out: IC50 rating) was below 100 nM. With `C[C@H](c1ccc(F)cc1)N1C(=O)O[C@](Cc2ccccc2)(c2nc3c(-c4ccncc4)cccc3[nH]2)C1=O` [Compound 34, (5R)-5-Benzyl-3-[(1R)-1-(4-fluorophenyl)ethyl]-5-(4-pyridin-4-yl-1H-benzimidazol-2-yl)-1,3-oxazolidine-2,4-dione], the IC50 (read-out: IC50 rating) was 100 to 500 nM. Regarding `C[C@H](c1ccc(F)cc1)N1C(=O)O[C@](Cc2ccccc2)(c2nc3cc(-c4cncnc4)ccc3[nH]2)C1=O` [Compound 22, (5R)-5-Benzyl-3-[(1R)-1-(4-fluorophenyl)ethyl]-5-(5-pyrimidin-5-yl-1H-benzimidazol-2-yl)-1,3-oxazolidine-2,4-dione], the IC50 (read-out: IC50 rating) is below 100 nM. Turning to `C[C@H](c1ccc(F)cc1)N1C(=O)O[C@](Cc2ccccc2)(c2nc3cc(-c4cn[nH]c4)ccc3[nH]2)C1=O` [Compound 26, (5R)-5-Benzyl-3-[(1R)-1-(4-fluorophenyl)ethyl]-5-[5-(1H-pyrazol-4-yl)-1H-benzimidazol-2-yl]-1,3-oxazolidine-2,4-dione], the IC50 (read-out: IC50 rating) is below 100 nM. Regarding `C[C@H](c1ccc(F)cc1)N1C(=O)O[C@](Cc2ccccc2)(c2nc3cc(N4CCOCC4)ccc3[nH]2)C1=O` [Compound 9, (5R)-5-Benzyl-3-[(1R)-1-(4-fluorophenyl)ethyl]-5-(5-morpholin-4-yl-1H-benzimidazol-2-yl)-1,3-oxazolidine-2,4-dione], the half-inhibitory concentration (IC50) (read-out: IC50 rating) is below 100 nM. As for `O=C1O[C@](Cc2ccccc2)(c2nc3ccc(Cl)cc3[nH]2)C(=O)N1[C@@H]1CCc2ccccc21` [Compound 13, (5R)-5-Benzyl-5-(5-chloro-1H-benzimidazol-2-yl)-3-[(1R)-2,3-dihydro-1H-inden-1-yl]-1,3-oxazolidine-2,4-dione], the IC50 (read-out: IC50 rating) fell in the range of 100 to 500 nM. Same read-out and setting: for `C[C@H](c1ccc(F)cc1)N1C(=O)O[C@](Cc2ccccc2)(c2nc3cc(Cl)ccc3[nH]2)C1=O` [Compound 1, (5R)-5-Benzyl-5-(5-chloro-1H-benzimidazol-2-yl)-3-[(1R)-1-(4-fluorophenyl)ethyl]-1,3-oxazolidine-2,4-dione] the value was 100 to 500 nM. Regarding `C[C@H](c1ccc(F)cc1)N1C(=O)O[C@](Cc2ccccc2)(c2nc3cc(-c4cc[nH]n4)ccc3[nH]2)C1=O` [Compound 27, (5R)-5-Benzyl-3-[(1R)-1-(4-fluorophenyl)ethyl]-5-[5-(1H-pyrazol-5-yl)-1H-benzimidazol-2-yl]-1,3-oxazolidine-2,4-dione], the IC50 (read-out: IC50 rating) was 100 to 500 nM.

Turning to `C[C@H](c1ccc(F)cc1)N1C(=O)O[C@](Cc2ccccc2)(c2nc3c(-c4cnoc4)cccc3[nH]2)C1=O` [Compound 30, (5R)-5-Benzyl-3-[(1R)-1-(4-fluorophenyl)ethyl]-5-(4-isoxazol-4-yl-1H-benzimidazol-2-yl)-1,3-oxazolidine-2,4-dione], the IC50 (read-out: IC50 rating) fell in the range of 500 to 2000 nM. On to `C[C@H](c1ccc(F)cc1)N1C(=O)O[C@](Cc2ccccc2)(c2nc3cc(F)c(F)cc3n2C)C1=O` [Compound 37, (5R)-5-Benzyl-5-(5,6-difluoro-1-methyl-1H-benzimidazol-2-yl)-3-[(1R)-1-(4-fluorophenyl)ethyl]-1,3-oxazolidine-2,4-dione], for which the IC50 (read-out: IC50 rating) lay within 100 to 500 nM. In the case of `CCCCC[C@@H](C)N1C(=O)O[C@](Cc2ccccc2)(c2nc3cc(NS(C)(=O)=O)ccc3[nH]2)C1=O` [Example 40, N-(2-((R)-5-benzyl-3-((R)-heptan-2-yl)-2,4-dioxooxazolidin-5-yl)-1H-benzo[d]imidazol-5-yl)methanesulfonamide], the IC50 (Table 3, read-out: IC50) was in the range of 500 to 2000 nM.
